In patent US11691980B2, “Liphagal analog and multi-targeted kinase inhibitor containing liphagal or analog thereof” (TOHOKU UNIVERSITY, priority 2017, dated 2023):

Key:
Assay in all cases: mobility shift assay
Assay type in all cases: biochemical
PIM2 = PIM2 (Homo sapiens, UniProt Q9P1W9)
CDK4/CycD3 = CDK4/CycD3 (Homo sapiens, UniProt P11802)
CaMK1δ = target: T1, CaMK1δ (Homo sapiens, UniProt Q8IU85)
T1 construct: purchased Carna Biosciences

p70S6Kβ = target: T2, p70S6Kβ (Homo sapiens, UniProt Q9UBS0)
T2 construct: purchased Carna Biosciences

CDC7/ASK = target: T3, CDC7/ASK (Homo sapiens, UniProt O00311)
T3 construct: purchased Carna Biosciences

DYRK1B = target: T4, DYRK1B (Homo sapiens, UniProt Q9Y463)
T4 construct: purchased Carna Biosciences

HPK3 = target: T5, HPK3 (Homo sapiens, UniProt Q9H422)
T5 construct: purchased Carna Biosciences
T5 sequence (Q9H422 whole entry): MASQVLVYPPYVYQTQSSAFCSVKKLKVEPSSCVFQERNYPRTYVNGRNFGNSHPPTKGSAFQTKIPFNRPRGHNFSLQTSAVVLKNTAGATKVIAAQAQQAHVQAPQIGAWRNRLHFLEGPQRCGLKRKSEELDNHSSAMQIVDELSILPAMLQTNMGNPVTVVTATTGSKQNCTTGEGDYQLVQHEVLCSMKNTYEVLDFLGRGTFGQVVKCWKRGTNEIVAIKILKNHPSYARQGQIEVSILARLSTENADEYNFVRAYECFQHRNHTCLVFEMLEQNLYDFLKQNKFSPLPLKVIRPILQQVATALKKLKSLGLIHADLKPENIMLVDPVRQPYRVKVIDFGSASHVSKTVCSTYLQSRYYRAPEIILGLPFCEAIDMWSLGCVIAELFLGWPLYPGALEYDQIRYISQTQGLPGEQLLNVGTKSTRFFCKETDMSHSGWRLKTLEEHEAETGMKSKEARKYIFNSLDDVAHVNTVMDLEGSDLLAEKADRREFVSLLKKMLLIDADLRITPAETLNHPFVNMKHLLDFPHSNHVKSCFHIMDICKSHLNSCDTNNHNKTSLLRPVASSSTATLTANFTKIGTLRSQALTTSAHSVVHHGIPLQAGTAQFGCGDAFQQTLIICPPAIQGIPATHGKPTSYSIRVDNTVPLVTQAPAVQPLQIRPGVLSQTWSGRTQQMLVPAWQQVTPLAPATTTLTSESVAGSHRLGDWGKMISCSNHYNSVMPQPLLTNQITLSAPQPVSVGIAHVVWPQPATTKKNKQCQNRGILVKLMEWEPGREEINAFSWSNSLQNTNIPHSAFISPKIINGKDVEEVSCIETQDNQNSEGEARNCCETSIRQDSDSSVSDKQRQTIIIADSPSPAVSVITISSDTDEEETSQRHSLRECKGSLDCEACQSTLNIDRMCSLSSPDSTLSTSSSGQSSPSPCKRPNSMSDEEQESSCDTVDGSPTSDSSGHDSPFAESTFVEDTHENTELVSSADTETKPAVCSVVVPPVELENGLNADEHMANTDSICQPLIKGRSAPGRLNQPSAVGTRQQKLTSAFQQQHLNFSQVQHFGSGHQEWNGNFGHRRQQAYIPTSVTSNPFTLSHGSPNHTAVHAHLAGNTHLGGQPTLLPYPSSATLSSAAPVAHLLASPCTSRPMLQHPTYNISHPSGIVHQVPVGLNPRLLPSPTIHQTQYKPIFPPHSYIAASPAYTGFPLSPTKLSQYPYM

BRAF(V600E)_Cascade = target: T6, BRAF(V600E)_Cascade (Homo sapiens, UniProt P15056, V600E)
T6 construct: purchased Carna Biosciences

KIT(D816E) = target: T7, KIT(D816E) (Homo sapiens, UniProt P10721, D816E)
T7 construct: purchased Carna Biosciences

JAK1 = target: T8, JAK1 (Homo sapiens, UniProt P23458)
T8 construct: purchased Carna Biosciences

AurB = target: T9, AurB (Homo sapiens, UniProt Q96GD4)
T9 construct: purchased Carna Biosciences

RET(Y791F) = target: T10, RET(Y791F) (Homo sapiens, UniProt P07949, Y791F)
T10 construct: purchased Carna Biosciences

SRPK2 = target: T11, SRPK2 (Homo sapiens, UniProt P78362)
T11 construct: purchased Carna Biosciences

EPHA7 = target: T12, EPHA7 (Homo sapiens, UniProt Q15375)
T12 construct: purchased Carna Biosciences

RSK3 = target: T13, RSK3 (Homo sapiens, UniProt Q15349)
T13 construct: purchased Carna Biosciences

RON = target: T14, RON (Homo sapiens, UniProt Q04912)
T14 construct: purchased Carna Biosciences

LYNa = target: T15, LYNa (Homo sapiens, UniProt P07948)
T15 construct: purchased Carna Biosciences

Etk2 = target: T16, Etk2 (Homo sapiens, UniProt P28482)
T16 construct: purchased Carna Biosciences

MAP4K2 = target: T17, MAP4K2 (Homo sapiens, UniProt Q12851)
T17 construct: purchased Carna Biosciences

MAP2K1 Cascade = target: T18, MAP2K1 Cascade (Homo sapiens, UniProt Q02750)
T18 construct: purchased Carna Biosciences

AKT1 = target: T19, AKT1 (Homo sapiens, UniProt P31749)
T19 construct: purchased Carna Biosciences
T19 sequence (P31749 whole entry): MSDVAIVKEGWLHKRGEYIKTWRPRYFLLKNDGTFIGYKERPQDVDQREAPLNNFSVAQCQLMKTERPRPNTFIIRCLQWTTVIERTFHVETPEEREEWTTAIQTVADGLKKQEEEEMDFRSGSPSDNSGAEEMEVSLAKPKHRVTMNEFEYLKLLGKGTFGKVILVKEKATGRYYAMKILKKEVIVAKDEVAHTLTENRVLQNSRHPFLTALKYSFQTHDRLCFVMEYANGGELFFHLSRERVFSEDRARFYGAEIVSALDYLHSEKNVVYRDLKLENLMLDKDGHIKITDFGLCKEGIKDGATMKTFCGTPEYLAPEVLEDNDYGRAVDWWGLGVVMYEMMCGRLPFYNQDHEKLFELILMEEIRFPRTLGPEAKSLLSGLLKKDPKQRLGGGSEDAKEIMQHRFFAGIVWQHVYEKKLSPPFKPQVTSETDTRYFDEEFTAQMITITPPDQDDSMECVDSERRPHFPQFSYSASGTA

FYN(isoform b) = target: T20, FYN(isoform b) (Homo sapiens, UniProt P06241)
T20 construct: purchased Carna Biosciences
T20 sequence (P06241 1-534 isoform P06241-2): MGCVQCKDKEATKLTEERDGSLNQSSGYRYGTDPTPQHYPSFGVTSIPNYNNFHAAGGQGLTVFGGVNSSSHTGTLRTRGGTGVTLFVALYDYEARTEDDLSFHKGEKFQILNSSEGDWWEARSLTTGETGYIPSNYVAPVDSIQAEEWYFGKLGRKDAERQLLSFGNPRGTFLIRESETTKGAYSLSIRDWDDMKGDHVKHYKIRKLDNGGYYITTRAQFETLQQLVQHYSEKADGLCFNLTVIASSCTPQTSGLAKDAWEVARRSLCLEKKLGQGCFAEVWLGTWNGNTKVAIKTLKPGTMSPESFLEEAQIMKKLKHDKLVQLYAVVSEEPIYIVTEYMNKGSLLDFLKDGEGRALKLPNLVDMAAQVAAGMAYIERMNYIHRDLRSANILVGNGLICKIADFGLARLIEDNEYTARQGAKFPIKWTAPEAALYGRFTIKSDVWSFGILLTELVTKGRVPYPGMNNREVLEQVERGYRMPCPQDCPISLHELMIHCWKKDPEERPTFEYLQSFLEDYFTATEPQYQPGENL

EPHA5 = target: T21, EPHA5 (Homo sapiens, UniProt P54756)
T21 construct: purchased Carna Biosciences

FLT3 = target: T22, FLT3 (Homo sapiens, UniProt P36888)
T22 construct: purchased Carna Biosciences
T22 sequence (P36888 27-993): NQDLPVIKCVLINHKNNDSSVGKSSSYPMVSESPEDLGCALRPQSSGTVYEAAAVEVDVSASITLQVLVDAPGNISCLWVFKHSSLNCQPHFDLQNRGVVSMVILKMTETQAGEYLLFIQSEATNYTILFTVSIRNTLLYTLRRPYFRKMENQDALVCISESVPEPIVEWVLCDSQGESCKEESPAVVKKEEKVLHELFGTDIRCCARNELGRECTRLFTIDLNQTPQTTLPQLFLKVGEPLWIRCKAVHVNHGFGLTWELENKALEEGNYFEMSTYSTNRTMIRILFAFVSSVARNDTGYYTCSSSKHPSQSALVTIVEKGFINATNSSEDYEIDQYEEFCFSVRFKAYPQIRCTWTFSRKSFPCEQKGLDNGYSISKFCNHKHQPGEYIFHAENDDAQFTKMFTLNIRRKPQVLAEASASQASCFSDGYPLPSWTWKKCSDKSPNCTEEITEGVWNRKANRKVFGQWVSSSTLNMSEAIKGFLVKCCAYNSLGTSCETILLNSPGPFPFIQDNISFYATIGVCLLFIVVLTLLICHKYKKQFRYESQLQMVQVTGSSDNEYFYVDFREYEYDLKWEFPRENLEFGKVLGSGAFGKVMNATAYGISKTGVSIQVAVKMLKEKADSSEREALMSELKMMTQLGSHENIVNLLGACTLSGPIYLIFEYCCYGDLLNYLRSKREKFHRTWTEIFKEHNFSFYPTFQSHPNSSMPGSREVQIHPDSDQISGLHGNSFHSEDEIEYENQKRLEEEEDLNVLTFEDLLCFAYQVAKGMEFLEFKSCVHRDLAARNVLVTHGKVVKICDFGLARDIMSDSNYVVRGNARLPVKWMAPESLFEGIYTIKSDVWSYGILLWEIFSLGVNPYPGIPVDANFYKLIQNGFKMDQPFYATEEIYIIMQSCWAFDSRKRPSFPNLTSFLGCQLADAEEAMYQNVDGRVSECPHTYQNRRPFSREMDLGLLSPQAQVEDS

ROCK2 = target: T23, ROCK2 (Homo sapiens, UniProt O75116)
T23 construct: purchased Carna Biosciences

FRK = target: T24, FRK (Homo sapiens, UniProt P42685)
T24 construct: purchased Carna Biosciences

PAK1 = target: T25, PAK1 (Homo sapiens, UniProt Q13153)
T25 construct: purchased Carna Biosciences

MNK = settings: 10 μM
ALK(L1152lnsT) = settings: 10 μM
JAK2 = target: T26, JAK2 (Homo sapiens, UniProt O60674)
T26 construct: purchased Carna Biosciences

KDR = target: T27, KDR (Homo sapiens, UniProt P35968)
T27 construct: purchased Carna Biosciences

HER2 = target: T28, HER2 (Homo sapiens, UniProt P04626)
T28 construct: purchased Carna Biosciences

PAK5 = target: T29, PAK5 (Homo sapiens, UniProt Q9P286)
T29 construct: purchased Carna Biosciences
T29 sequence (Q9P286 whole entry): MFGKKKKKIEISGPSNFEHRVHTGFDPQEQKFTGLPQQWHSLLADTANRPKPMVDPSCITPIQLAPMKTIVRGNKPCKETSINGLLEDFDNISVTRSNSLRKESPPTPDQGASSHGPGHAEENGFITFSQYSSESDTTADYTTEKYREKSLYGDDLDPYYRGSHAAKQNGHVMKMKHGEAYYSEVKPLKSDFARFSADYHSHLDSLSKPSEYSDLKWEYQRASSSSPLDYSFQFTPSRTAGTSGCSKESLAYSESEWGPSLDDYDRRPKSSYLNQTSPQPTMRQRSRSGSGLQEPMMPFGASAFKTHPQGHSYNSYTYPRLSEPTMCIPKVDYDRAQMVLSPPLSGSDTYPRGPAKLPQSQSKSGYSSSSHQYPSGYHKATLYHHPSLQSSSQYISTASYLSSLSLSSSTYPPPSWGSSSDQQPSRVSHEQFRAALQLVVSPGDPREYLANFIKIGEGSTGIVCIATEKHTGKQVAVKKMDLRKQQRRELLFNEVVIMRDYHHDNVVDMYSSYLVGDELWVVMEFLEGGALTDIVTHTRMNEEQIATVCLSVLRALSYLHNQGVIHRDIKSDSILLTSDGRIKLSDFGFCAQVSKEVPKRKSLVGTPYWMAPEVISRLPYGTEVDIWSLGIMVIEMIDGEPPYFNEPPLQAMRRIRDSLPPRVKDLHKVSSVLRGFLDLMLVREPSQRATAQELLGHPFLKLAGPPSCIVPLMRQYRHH

MARK4 = target: T30, MARK4 (Homo sapiens, UniProt Q96L34)
T30 construct: purchased Carna Biosciences

Erk1 = target: T31, Erk1 (Homo sapiens, UniProt P27361)
T31 construct: purchased Carna Biosciences

JAK3 = target: T32, JAK3 (Homo sapiens, UniProt P52333)
T32 construct: purchased Carna Biosciences

PKCβ2 = target: T33, PKCβ2 (Homo sapiens, UniProt P05771)
T33 construct: purchased Carna Biosciences

PKCη = target: T34, PKCη (Homo sapiens, UniProt P24723)
T34 construct: purchased Carna Biosciences

PIK3CA/PIK3R1 = PIK3CA/PIK3R1 (Homo sapiens, UniProt P42336); design: purchased Carna Biosciences
Method: LG-1 (liphgal) at 10 μM was assessed for its inhibitory activity against 313 kinds of kinases by mobility shift assay or IMAP Assay™ (Carna Biosciences). Specifically, the assessment was performed by the IMAP Assay™ (Carna Biosciences) for SPRK1, PLK2, PKR, PKN1, PEK, IRAK1, and EKKα among the 313 kinds of kinases, and the assessment was performed by the mobility shift assay for all the other kinases. Inhibitory activity (% inhibition) against each kinase is represented by the size of a bubble on a protein kinase phylogenetic tree of FIG. 2.

PIM2, sequence (Q9P1W9 whole entry): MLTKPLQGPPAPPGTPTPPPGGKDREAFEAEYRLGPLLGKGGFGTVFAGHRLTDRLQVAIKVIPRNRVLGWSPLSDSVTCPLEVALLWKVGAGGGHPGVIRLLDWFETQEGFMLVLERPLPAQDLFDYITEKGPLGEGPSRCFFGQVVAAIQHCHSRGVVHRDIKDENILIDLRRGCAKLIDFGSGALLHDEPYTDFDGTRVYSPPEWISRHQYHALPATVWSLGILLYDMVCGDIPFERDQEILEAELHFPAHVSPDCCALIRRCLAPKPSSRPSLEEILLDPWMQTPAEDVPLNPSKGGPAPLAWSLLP
CDK4/CycD3, sequence (P11802 whole entry): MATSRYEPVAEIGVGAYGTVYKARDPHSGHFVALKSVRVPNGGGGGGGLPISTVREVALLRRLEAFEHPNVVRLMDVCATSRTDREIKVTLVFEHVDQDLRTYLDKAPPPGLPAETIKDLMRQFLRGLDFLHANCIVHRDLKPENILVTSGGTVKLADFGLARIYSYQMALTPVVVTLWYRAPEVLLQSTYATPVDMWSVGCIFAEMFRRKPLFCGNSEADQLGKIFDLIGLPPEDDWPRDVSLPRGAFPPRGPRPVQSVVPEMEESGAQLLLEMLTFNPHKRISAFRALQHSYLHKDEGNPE
CDK4/CycD3, sequence (P30281 whole entry partner): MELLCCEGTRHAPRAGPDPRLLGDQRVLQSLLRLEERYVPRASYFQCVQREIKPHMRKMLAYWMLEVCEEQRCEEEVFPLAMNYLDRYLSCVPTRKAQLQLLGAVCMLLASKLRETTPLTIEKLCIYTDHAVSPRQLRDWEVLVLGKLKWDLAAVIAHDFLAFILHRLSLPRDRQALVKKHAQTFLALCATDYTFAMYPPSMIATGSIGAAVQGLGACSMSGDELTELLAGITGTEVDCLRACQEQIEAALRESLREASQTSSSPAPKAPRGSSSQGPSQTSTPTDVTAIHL

SMILES: C[C@@H]1CC[C@H]2C(C)(C)CCC[C@]2(C)c2c1oc1c(C=O)c(O)c(O)cc21 [LG-1, liphagal]
- inhibition at 10 µM (PIM2; PIM2): 63.5%
- inhibitory activity against PIM2 (PIM2; in words, 10 μM): potent inhibitory activity
- inhibition at 10 µM (CDK4/CycD3; CDK4/CycD3): 63.4%
- inhibitory activity against CDK4 (CDK4/CycD3; in words, 10 μM): Potent inhibitory activity
- inhibition at 10 µM (CaMK1δ): 57.7%
- inhibition at 10 µM (p70S6Kβ): 26.4%
- inhibition at 10 µM (CDC7/ASK): 26.2%
- inhibition at 10 µM (DYRK1B): 21.8%
- inhibition at 10 µM (HPK3): 20.5%
- inhibition at 10 µM (BRAF(V600E)_Cascade): 19.5%
- inhibition at 10 µM (KIT(D816E)): 19.4%
- inhibition at 10 µM (JAK1): 14.9%
- inhibition at 10 µM (AurB): 12.1%
- inhibition at 10 µM (RET(Y791F)): 9.9%
- inhibition at 10 µM (SRPK2): 9.7%
- inhibition at 10 µM (EPHA7): 8.7%
- inhibition at 10 µM (RSK3): 8.1%
- inhibition at 10 µM (RON): 7.8%
- inhibition at 10 µM (LYNa): 7.6%
- inhibition at 10 µM (Etk2): 6.2%
- inhibition at 10 µM (MAP4K2): 5%
- inhibition at 10 µM (MAP2K1 Cascade): 4.1%
- inhibition at 10 µM (AKT1): 3.1%
- inhibition at 10 µM (FYN(isoform b)): 3.1%
- inhibition at 10 µM (EPHA5): 2.3%
- inhibition at 10 µM (FLT3): 2.1%
- inhibition at 10 µM (ROCK2): 2%
- inhibition at 10 µM (FRK): 1.4%
- inhibition at 10 µM (PAK1): 0.5%
- % Inhibition (MNK): 0.0%
- % Inhibition (ALK(L1152lnsT)): −0.2%
- inhibition at 10 µM (JAK2): -0.7%
- inhibition at 10 µM (KDR): -1.1%
- inhibition at 10 µM (HER2): -1.6%
- inhibition at 10 µM (PAK5): -2.5%
- inhibition at 10 µM (MARK4): -3.8%
- inhibition at 10 µM (Erk1): -4.4%
- inhibition at 10 µM (JAK3): -7.2%
- inhibition at 10 µM (PKCβ2): -13.2%
- inhibition at 10 µM (PKCη): -34.3%
- inhibition at 10 µM (PIK3CA/PIK3R1): 83.4%
